Tested on: 485368-065-R4-J2-PDC spheroids with HUVEC/MSC, viability
Experiment: Anticancer human tumor 485368-065-R4-J2-PDC patient-derived pancreatic carcinoma cell line growth inhibition [CLK]
Settings: for IC50: curve of first compound; for viability, T/C: stronger effect = lower value
Method in brief: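 Patient-derived tumor cells grown as complex spheroids with HUVEC endothelial cells and mesenchymal stem cells, treated with drug combinations. Concentrations descend in half-log steps from near clinical Cmax, or from 10 microM if Cmax unknown.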

[1] = second compound 0.0316 µM, first compound 0.0316 µM
[2] = second compound 0.0316 µM, first compound 0.1 µM
[3] = second compound 0.0316 µM, first compound 0.316 µM
[4] = second compound 0.0316 µM, first compound 1 µM
[5] = second compound 0.0316 µM, first compound 3.16 µM
[6] = second compound 0.0316 µM, first compound 10 µM
[7] = second compound 0.1 µM, first compound 0.0316 µM
[8] = second compound 0.1 µM, first compound 0.1 µM
[9] = second compound 0.1 µM, first compound 0.316 µM
[10] = second compound 0.1 µM, first compound 1 µM
[11] = second compound 0.1 µM, first compound 3.16 µM
[12] = second compound 0.1 µM, first compound 10 µM
[13] = second compound 0.316 µM, first compound 0.0316 µM
[14] = second compound 0.316 µM, first compound 0.1 µM
[15] = second compound 0.316 µM, first compound 0.316 µM
[16] = second compound 0.316 µM, first compound 1 µM
[17] = second compound 0.316 µM, first compound 3.16 µM
[18] = second compound 0.316 µM, first compound 10 µM
[19] = second compound 1 µM, first compound 0.0316 µM
[20] = second compound 1 µM, first compound 0.1 µM
[21] = second compound 1 µM, first compound 0.316 µM
[22] = second compound 1 µM, first compound 1 µM
[23] = second compound 1 µM, first compound 3.16 µM
[24] = second compound 1 µM, first compound 10 µM
[25] = second compound 3.16 µM, first compound 0.0316 µM
[26] = second compound 3.16 µM, first compound 0.1 µM
[27] = second compound 3.16 µM, first compound 0.316 µM
[28] = second compound 3.16 µM, first compound 1 µM
[29] = second compound 3.16 µM, first compound 3.16 µM
[30] = second compound 3.16 µM, first compound 10 µM
[31] = second compound 10 µM, first compound 0.0316 µM
[32] = second compound 10 µM, first compound 0.1 µM
[33] = second compound 10 µM, first compound 0.316 µM
[34] = second compound 10 µM, first compound 1 µM
[35] = second compound 10 µM, first compound 3.16 µM
[36] = second compound 10 µM, first compound 10 µM
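Further: spheroids exposed to compounds for seven days.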
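Wherever viability, T/C is given: 100% = DMSO vehicle control wells.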

Work on `C#Cc1c(F)ccc2cc(O)cc(-c3ncc4c(N5CC6CCC(C5)N6)nc(OCC56CCCN5CC(F)C6)nc4c3F)c12` (stereo not drawn) + CNC(=O)c1ccc(Nc2nc(OC3CCCC3)c3c(-c4ccc5nc(C)oc5c4)c[nH]c3n2)c(OC)c1 yielded an IC50 (second compound 0.0316 µM) of over 10 µM, an IC50 (second compound 0.1 µM) of over 10 µM and an IC50 (second compound 0.316 µM) of over 10 µM. The IC50 (second compound 1 µM) was over 10 µM, the IC50 (second compound 3.16 µM) was 6.95 µM and the IC50 (second compound 10 µM) was 5.79 µM. For the same molecule, the viability, T/C [1] was 103%, the viability, T/C [2] was 115% and the viability, T/C [3] was 90.3%. For the same molecule, the viability, T/C [4] was 102%, the viability, T/C [5] was 104% and the viability, T/C [6] was 108%. For the same molecule, the viability, T/C [7] was 96.1%, the viability, T/C [8] was 99.8% and the viability, T/C [9] was 108%. It also gave a viability, T/C [10] of 98.4%, a viability, T/C [11] of 103% and a viability, T/C [12] of 108%. The viability, T/C [13] was 91.4%, the viability, T/C [14] was 86.5% and the viability, T/C [15] was 96.7%. It also gave a viability, T/C [16] of 87%, a viability, T/C [17] of 75.8% and a viability, T/C [18] of 70.3%. It also gave a viability, T/C [19] of 82.8%, a viability, T/C [20] of 79.4% and a viability, T/C [21] of 80.3%. The viability, T/C [22] was 71.5%, the viability, T/C [23] was 68.8% and the viability, T/C [24] was 52.3%. The viability, T/C [25] was 77.5%, the viability, T/C [26] was 72.5% and the viability, T/C [27] was 77.1%. For the same molecule, the viability, T/C [28] was 73.2%, the viability, T/C [29] was 59.4% and the viability, T/C [30] was 45%. For the same molecule, the viability, T/C [31] was 74.7%, the viability, T/C [32] was 73.1% and the viability, T/C [33] was 68.5%. It also gave a viability, T/C [34] of 67.7%, a viability, T/C [35] of 57% and a viability, T/C [36] of 43.1%.

`C=C(F)C(=O)N1CCN(c2nc(OCC3CCCN3C)nc3c2CCN(c2cccc4cccc(Cl)c24)C3)CC1CC#N` (stereo not drawn) + CNC(=O)c1ccc(Nc2nc(OC3CCCC3)c3c(-c4ccc5nc(C)oc5c4)c[nH]c3n2)c(OC)c1 was tested, and the IC50 (second compound 0.0316 µM) was over 10 µM, the IC50 (second compound 0.1 µM) was over 10 µM and the IC50 (second compound 0.316 µM) was over 10 µM. The IC50 (second compound 1 µM) was over 10 µM, the IC50 (second compound 3.16 µM) was over 10 µM and the IC50 (second compound 10 µM) was 7.59 µM. For the same molecule, the viability, T/C [1] was 83.5%, the viability, T/C [2] was 105% and the viability, T/C [3] was 85.8%. The viability, T/C [4] was 101%, the viability, T/C [5] was 115% and the viability, T/C [6] was 99%. For the same molecule, the viability, T/C [7] was 98.2%, the viability, T/C [8] was 95.4% and the viability, T/C [9] was 107%. It also gave a viability, T/C [10] of 112%, a viability, T/C [11] of 111% and a viability, T/C [12] of 108%. It also gave a viability, T/C [13] of 79.8%, a viability, T/C [14] of 80.9% and a viability, T/C [15] of 89.1%. The viability, T/C [16] was 92.9%, the viability, T/C [17] was 82.7% and the viability, T/C [18] was 93.5%. It also gave a viability, T/C [19] of 81.9%, a viability, T/C [20] of 79.7% and a viability, T/C [21] of 77.6%. It also gave a viability, T/C [22] of 78.5%, a viability, T/C [23] of 94.5% and a viability, T/C [24] of 107%. For the same molecule, the viability, T/C [25] was 74.4%, the viability, T/C [26] was 70.2% and the viability, T/C [27] was 76.1%. The viability, T/C [28] was 78.1%, the viability, T/C [29] was 80.9% and the viability, T/C [30] was 90.4%. The viability, T/C [31] was 71.6%, the viability, T/C [32] was 76.4% and the viability, T/C [33] was 76.1%. It also gave a viability, T/C [34] of 80%, a viability, T/C [35] of 71.3% and a viability, T/C [36] of 43%.

`C=CC(=O)N1CCN(c2nc(=O)n(-c3c(C)ccnc3C(C)C)c3nc(-c4c(O)cccc4F)c(F)cc23)C(C)C1` (stereo not drawn) + CNC(=O)c1ccc(Nc2nc(OC3CCCC3)c3c(-c4ccc5nc(C)oc5c4)c[nH]c3n2)c(OC)c1 was tested, and the IC50 (second compound 0.0316 µM) was over 10 µM, the IC50 (second compound 0.1 µM) was over 10 µM and the IC50 (second compound 0.316 µM) was over 10 µM. The IC50 (second compound 1 µM) was over 10 µM, the IC50 (second compound 3.16 µM) was over 10 µM and the IC50 (second compound 10 µM) was over 10 µM. It also gave a viability, T/C [1] of 94%, a viability, T/C [2] of 110% and a viability, T/C [3] of 89.5%. The viability, T/C [4] was 103%, the viability, T/C [5] was 93.3% and the viability, T/C [6] was 98.9%. The viability, T/C [7] was 105%, the viability, T/C [8] was 98.5% and the viability, T/C [9] was 99.8%. For the same molecule, the viability, T/C [10] was 109%, the viability, T/C [11] was 95.9% and the viability, T/C [12] was 88.8%. It also gave a viability, T/C [13] of 82%, a viability, T/C [14] of 92.5% and a viability, T/C [15] of 92.2%. It also gave a viability, T/C [16] of 95%, a viability, T/C [17] of 80.8% and a viability, T/C [18] of 72.8%. For the same molecule, the viability, T/C [19] was 85%, the viability, T/C [20] was 87.9% and the viability, T/C [21] was 79.4%. The viability, T/C [22] was 82.8%, the viability, T/C [23] was 78.1% and the viability, T/C [24] was 75.7%. For the same molecule, the viability, T/C [25] was 76.7%, the viability, T/C [26] was 69.7% and the viability, T/C [27] was 72.2%. The viability, T/C [28] was 73.8%, the viability, T/C [29] was 77.5% and the viability, T/C [30] was 69.8%. It also gave a viability, T/C [31] of 77.8%, a viability, T/C [32] of 76.4% and a viability, T/C [33] of 75%. The viability, T/C [34] was 74.4%, the viability, T/C [35] was 74.2% and the viability, T/C [36] was 67.4%.

In the case of `CC(CO)NC(=O)c1cc(-c2ccc(Cl)cc2)nn(-c2cnn(C)c2)c1=O` (stereo not drawn) + CNC(=O)c1ccc(Nc2nc(OC3CCCC3)c3c(-c4ccc5nc(C)oc5c4)c[nH]c3n2)c(OC)c1, the IC50 (second compound 0.0316 µM) is reported as over 10 µM, the IC50 (second compound 0.1 µM) is reported as over 10 µM and the IC50 (second compound 0.316 µM) is reported as over 10 µM. It also gave an IC50 (second compound 1 µM) of over 10 µM, an IC50 (second compound 3.16 µM) of over 10 µM and an IC50 (second compound 10 µM) of over 10 µM. The viability, T/C [1] was 87.9%, the viability, T/C [2] was 94.3% and the viability, T/C [3] was 87.9%. The viability, T/C [4] was 101%, the viability, T/C [5] was 89.8% and the viability, T/C [6] was 103%. For the same molecule, the viability, T/C [7] was 90.5%, the viability, T/C [8] was 97% and the viability, T/C [9] was 93.6%. For the same molecule, the viability, T/C [10] was 103%, the viability, T/C [11] was 92.8% and the viability, T/C [12] was 97.8%. It also gave a viability, T/C [13] of 82.8%, a viability, T/C [14] of 84.2% and a viability, T/C [15] of 82.5%. For the same molecule, the viability, T/C [16] was 75.4%, the viability, T/C [17] was 86.4% and the viability, T/C [18] was 85.9%. The viability, T/C [19] was 83.7%, the viability, T/C [20] was 69.9% and the viability, T/C [21] was 73.3%. The viability, T/C [22] was 73.9%, the viability, T/C [23] was 70.2% and the viability, T/C [24] was 77.1%. For the same molecule, the viability, T/C [25] was 72.3%, the viability, T/C [26] was 67.2% and the viability, T/C [27] was 71%. The viability, T/C [28] was 70.6%, the viability, T/C [29] was 69.3% and the viability, T/C [30] was 76%. It also gave a viability, T/C [31] of 64.9%, a viability, T/C [32] of 71.2% and a viability, T/C [33] of 69.6%. The viability, T/C [34] was 66.6%, the viability, T/C [35] was 72.8% and the viability, T/C [36] was 70.7%.

— PubChem BioAssay AID2060617 (Molecular Pharmacology Branch, DTP, NCI, 2025)
